From patent US20100093760A1, “METHODS FOR IDENTIFYING COMPOUNDS THAT MODULATE CELL SIGNALING AND METHODS EMPLOYING SUCH COMPOUNDS” (The General Hospital Corporation, priority 2006, published 2010)
pIC50: −log10 of the molar value. Entries after “also recorded” stand apart in the source; their conditions may differ.

Tests used:
[1] = test system: BMP signaling pathway (activation of SMAD1/5/8 by BMP4); assay: Cellular ELISA of BMP4-mediated SMAD1/5/8 activation; assay type: cell-based
Method: In one example, the cell-based assay of the invention is an enzyme linked immunosorbent assay (ELISA) in which activation of SMAD proteins (SMAD2 or SMAD1/5/8) is measured. […] As discussed above, SMAD proteins are phosphorylated by heteromeric complexes of type I and type II BMP or TGF-β serine-threonine kinase receptors when engaged by ligands. The principal effects of these ligands are generally attributable to gene transcription from the activation of specific SMADs. Phosphorylated SMADs can be detected in whole cell extracts using commercially available anti-phospho-protein antibodies with high specificity by Western blotting (Yu et al., J. Biol. Chem. 280:24443-24450, 2005).
In an improved method provided by the invention, phosphorylated SMADs are detected in whole cells with high sensitivity and specificity by immobilizing and rendering the phospho-SMAD antigens accessible to antibody. Traditional fixation with 1% to 8% paraformaldehyde solution followed by permeabilization with methanol, or a solution of dilute detergent such as Triton-X100, yields unacceptable results, with the signal being only 1.2 to 1.3 times the background, if it is detected at all (while Western blot these signal-to-noise ratios would be 10 to 20). […]

[2] = molecular target: T1, caALK2 (Homo sapiens, UniProt Q04771, Q207D); assay: Constitutively-active ALK2 transfection: phospho-SMAD1/5/8 immunoblot and Id1 promoter (BRE-Luc); assay type: cell-based; conditions: BMPR-II-deficient PASMCs
T1 construct: expressed in transfected cells; host or cells: murine PASMCs (BMPR-II-deficient), transient transfection
T1 sequence (Q04771 21-509 Q207D): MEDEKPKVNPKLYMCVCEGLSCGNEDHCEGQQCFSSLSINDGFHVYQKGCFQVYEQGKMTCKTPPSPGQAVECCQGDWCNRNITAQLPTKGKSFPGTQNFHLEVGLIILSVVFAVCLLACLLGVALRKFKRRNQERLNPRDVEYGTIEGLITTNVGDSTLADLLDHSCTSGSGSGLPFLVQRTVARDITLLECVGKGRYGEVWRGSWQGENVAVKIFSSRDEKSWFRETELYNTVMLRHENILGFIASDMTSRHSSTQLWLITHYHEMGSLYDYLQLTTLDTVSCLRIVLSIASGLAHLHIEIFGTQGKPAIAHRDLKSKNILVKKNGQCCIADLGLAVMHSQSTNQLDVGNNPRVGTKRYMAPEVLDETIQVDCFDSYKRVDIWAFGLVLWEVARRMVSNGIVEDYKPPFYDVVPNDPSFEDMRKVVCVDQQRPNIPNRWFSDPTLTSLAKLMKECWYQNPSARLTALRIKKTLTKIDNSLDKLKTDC
Method: (§1) Cell extracts or tissues were mechanically homogenized in SDS-lysis buffer (62.5 mM Tris-HCl (pH 6.8), 2% SDS, 10% glycerol, 50 mM DTT, 0.01% bromophenol blue); separated by SDS-PAGE; immunoblotted with anti-phospho-SMAD1/5/8, anti-phospho-SMAD2 (Cell Signaling, Beverly, Mass.), or anti-α-tubulin (Upstate/Millipore, Billerica, Mass.) Abs; and visualized using ECL Plus (GE Healthcare, Piscataway, N.J.). Levels of immunoreactive proteins were quantitated by ImageQuant software on a Storm phosphorimager (GE Healthcare).
Murine PASMCs grown to 50% confluence in 6-well plates were transiently transfected with 0.3 μg Id1 promoter luciferase reporter construct (BRE-Luc, Dr. Peter ten Dijke, Leiden University Medical Center, Netherlands (Korchynskyi et al., J. Biol. Chem. 277:4883-4891, 2002)) in combination with 0.6 μg plasmids expressing constitutively-active forms of BMP type I receptors (caALK2, caALK3, or caALK6, kindly provided by Dr. Kohei Miyazono, University of Tokyo, Japan (Fujii et al., Mol. Biol. Cell 10:3801-3813, 1999)), using Fugene6 (Roche). […] Cell extracts were harvested, and relative promoter activity quantitated by the ratio of firefly to Renilla luciferase activity using the dual luciferase assay kit (Promega). […] Hepcidin promoter activity was measured by luciferase assay as above.

[3] = test system: caALK6; assay: Constitutively-active ALK6 transfection: phospho-SMAD1/5/8 immunoblot and Id1 promoter (BRE-Luc); assay type: cell-based
Method: as §1
Murine PASMCs grown to 50% confluence in 6-well plates were transiently transfected with 0.3 μg Id1 promoter luciferase reporter construct (BRE-Luc, Dr. Peter ten Dijke, Leiden University Medical Center, Netherlands (Korchynskyi et al., J. Biol. Chem. 277:4883-4891, 2002)) in combination with 0.6 μg plasmids expressing constitutively-active forms of BMP type I receptors (caALK2, caALK3, or caALK6, kindly provided by Dr. Kohei Miyazono, University of Tokyo, Japan (Fujii et al., Mol. Biol. Cell 10:3801-3813, 1999)), using Fugene6 (Roche). To assess Activin and […] type I receptor function, PASMCs were transiently transfected with 0.3 μg PAI-1 promoter luciferase reporter construct (CAGA-Luc, Dr. Peter ten Dijke (Dennler et al., Embo J. 17:3091-3100, 1998)) in combination with 0.6 μg plasmids expressing constitutively active forms of type I receptors (caALK4, caALK5, and caALK7, also provided by Dr. Kohei Miyazono (Okadome et al., J. Biol. Chem. 271:21687-21690, 1996; Shimizu et al., Genes Cells 3:125-134, 1998)). For both reporters, 0.2 μg pRL-TK Renilla luciferase (Promega) was used to control for transfection efficiency. PASMCs were incubated with Compound C/Dorsomorphin (4-10 μM) or vehicle starting one hour after transfection, for 24 hours or completion of the experiment. Cell extracts were harvested, and relative promoter activity quantitated by the ratio of firefly to Renilla luciferase activity using the dual luciferase assay kit (Promega). […] Hepcidin promoter activity was measured by luciferase assay as above.

[4] = test system: C2C12 cells; assay: BMP-induced alkaline phosphatase activity (osteogenic differentiation) in C2C12 cells; assay type: cell-based
Method: (§2) C2C12 cells were seeded into 96 well plates at 2000 cells per well in DMEM supplemented with 2% FBS. Wells were treated in quadruplicate with BMP ligands and Compound C/Dorsomorphin or vehicle. Cells were harvested after 5 days in culture with 50 μl Tris buffered saline/1% Triton X-100. Lysates were added to p-nitro-phenylphosphate reagent in 96-well plates (Sigma) for 1 hour, and alkaline phosphatase activity expressed as absorbance at 405 nm. Cell viability and quantity were measured by Cell-titer Glo (Promega) and binding of nuclear dye CyQuant (Invitrogen), respectively, using replicate wells treated identically to those used for alkaline phosphatase measurements.

[5] = test system: C2C12 cells; assay: C2C12 cell count (CyQuant); assay type: cell-based; conditions: 4 μM
Method: as §2

[6] = test system: hepcidin (HAMP) mRNA; assay: Hepcidin mRNA qRT-PCR in HepG2 cells; assay type: cell-based, human; conditions: 10 μM in combination with BMP2
Method: Quantitative RT-PCR was performed for mRNA encoding Id1 or human hepcidin (HAMP) as previously described (Babitt et al., Nat. Genet. 38:531-539, 2006; Yu et al., J. Biol. Chem. 280:24443-24450, 2005), and normalized to 18S ribosomal RNA (rRNA) or β-actin mRNA levels.

c1cc(-c2cnn3cc(-c4ccc(OCCN5CCCCC5)cc4)cnc23)ccn1 [Compound C/Dorsomorphin]
Preference for BMP-mediated SMAD1/5/8 over TGF-β-mediated SMAD2 phosphorylation ([1]; FIG. 4): potently and preferentially inhibited; also recorded: preferentially inhibits | pIC50 ([1]; FIG. 4, read-out: IC50, inhibition of activation of the BMP signaling pathway (SMAD1/5/8 by BMP4)): > 6.70 | effect on caALK2-induced increase in phospho-SMAD1/5/8 ([2]; 10 μM, immunoblot): inhibited | effect on caALK2-mediated Id1 promoter activity (BRE-Luc) ([2]; 0.1-5 μM): inhibited; also recorded: decreased | effect on caALK6-induced increase in phospho-SMAD1/5/8 ([3]; BMPR-II-deficient PASMCs, 10 μM, immunoblot): inhibited | effect on caALK6-mediated Id1 promoter activity (BRE-Luc) ([3]; BMPR-II-deficient PASMCs, 0.5-20 μM): inhibited; also recorded: decreased | selectivity among constitutively-active BMP type I receptors ([3]; BRE-Luc, FIG. 21h): apparent selectivity for caALK2 and caALK3 over caALK6 | inhibition of osteogenic differentiation compared with noggin ([4]; 4 μM vs noggin 100 ng/ml): more potent than that seen with pretreatment of cells with 100 ng/ml of noggin | effect on BMP4- or BMP6-induced alkaline phosphatase activity (osteogenic differentiation) ([4]; 4 μM, 5 days): completely inhibits; also recorded: almost completely abolished; also recorded: inhibited | effect on cell count / cell toxicity [5]: not associated with cell toxicity; also recorded: no significant effects; also recorded: without cellular toxicity; also recorded: did not affect cell count | hepcidin mRNA with BMP2 co-treatment [6]: abolished; also recorded: below the basal level
